{"source": "patent US20150320814A1", "about": "“NUTRACEUTICAL FORMULATION FOR TREATMENT OF ANXIETY AND DEPRESSION” (priority 2014, published 2015)", "origin": "cited, not measured here", "key": {"alpha brain waves": {"system": "alpha brain waves", "conditions": "sixty minutes after oral administration, volunteers"}, "[1]": {"system": "patients with clinical depression", "conditions": "patients with clinical depression treated with nicotinic acid"}, "GABA receptors": {"system": "GABA receptors", "conditions": "isolated from skullcap"}, "[2]": {"system": "patients with major depression", "conditions": "125-300 mg of magnesium with each meal and at bedtime"}, "[3]": {"conditions": "in vivo"}}, "data": [{"smiles": "NCCCC(=O)O", "note": "[GABA, gamma aminobutyric acid]", "values": [{"measurement": "alpha brain waves by electroencephalogram", "setting": "alpha brain waves", "result": "increases in alpha brain waves"}]}, {"smiles": "O=C(O)c1cccnc1", "note": "[nicotinic acid]", "values": [{"measurement": "patients showing significant improvements in mood", "setting": "[1]", "result": "14 of 15"}]}, {"smiles": "O=C(O)[C@H]1O[C@@H](Oc2cc3oc(-c4ccccc4)cc(=O)c3c(O)c2O)[C@H](O)[C@@H](O)[C@@H]1O", "note": "[baicalin]", "values": [{"measurement": "activity at GABA receptors", "setting": "GABA receptors", "result": "agonists of GABA receptors"}]}, {"smiles": "[Mg+2]", "note": "[magnesium]", "values": [{"measurement": "recovery from major depression", "setting": "[2]", "result": "Rapid recovery"}]}, {"smiles": "O=c1cc(-c2ccccc2)oc2cc(O)c(O)c(O)c12", "note": "[baicalein]", "values": [{"measurement": "activity at GABA receptors", "setting": "GABA receptors", "result": "agonists of GABA receptors"}]}, {"smiles": "CCNC(=O)CC[C@H](N)C(=O)O", "note": "[Theanine, L-theanine]", "values": [{"measurement": "blood brain barrier passage", "setting": "[3]", "result": "passes through the blood brain barrier"}]}]}
